Data reported in US8680288B2, “Pyridin-2yl sulfanyl acid esters and process for the preparation thereof” (Council of Scientific & Industrial Research, priority 2010, dated 2014).
“Also recorded” adds a separate entry of the source. Like-named read-outs stand apart in the source and are kept apart here.

How the values were obtained:
acute lung Injury model = settings: literature reference; cited from earlier work
[1] = test system: ICAM-1 (Intercellular cell adhesion molecule-1); assay: Cell-ELISA for measurement of LPS-induced ICAM-1 expression on endothelial cells; type: cell-based; settings: LPS (1 μg/ml) 16 hrs, human endothelial cells, read-out: ICAM-1 inhibition IC50
Protocol: (§1) Primary endothelial cells were isolated from human umbilical cord using mild trypsinization (Kumar, S., Arya, P., Mukherjee, C., Singh, B. K., Singh, N., Parmar, V. S., Prasad, A. K., Ghosh, B. Novel Aromatic Ester from Piper longum and Its Analogues Inhibit Expression of Cell Adhesion Molecules on Endothelial Cells. Biochemistry. 2005, 44, 15944-15952). The cells were grown in M199 medium (Sigma, USA) supplemented with 15% heat inactivated fetal calf serum (Biological Industries, Israel), 2 mM L-glutamine (Sigma, USA), 100 units/ml penicillin (Sigma, USA), 100 μg/ml streptomycin (Sigma, USA), 0.25 μg/ml amphotericin B (Sigma, USA), endothelial cell growth factor (50 μg/ml) (Sigma, USA). At confluence, the cells were subcultured using 0.05% trypsin-0.01 M EDTA solution and were used between passages three to four.
Cell-ELISA was used for measuring the expression of ICAM-1 on surface of endothelial cells (Kumar S et al, 2005) Endothelial cells were incubated with or without the test compounds at desired concentrations for the required period, followed by treatment with LPS (1 μg/ml) (BD, USA) for 16 hrs for ICAM-1 expression. The cells were fixed with 1.0% glutaraldehyde (Sigma, USA). Non-specific binding of antibody was blocked by using skimmed milk (3.0% in PBS). Cells were incubated overnight at 4° C. with anti-ICAM-1 mAb (BD, USA), diluted in blocking buffer, the cells were further washed with PBS and incubated with peroxidase-conjugated goat anti-mouse secondary antibody (Sigma, USA). After washings, cells were exposed to the peroxidase substrate (o-phenylenediamine dihydrochloride 40 mg/100 ml in citrate phosphate buffer, pH 4.5). Reaction was stopped by the addition of 2 N sulfuric acid and absorbance at 490 nm was measured using microplate reader (Spectramax 190, Molecular Devices, USA).

[2] = test system: human umbilical vein endothelial cell (HUVEC); assay: Cell viability (MTT) assay on endothelial cells; type: cell-based; settings: Concentration of compounds where >95% cells are viable
Protocol: as §1
The cytotoxicity of these compounds was analyzed by colorimetric MTT (methylthiazolydiphenyl-tetrazolium bromide, Sigma, USA) assay as described (Kumar S et al, 2005). Briefly, endothelial cells were treated with DMSO alone (0.25%, as vehicle) or with different concentrations of compounds for 24 hrs. Four hrs before the end of incubation, medium was removed and 100 μl MTT (5 mg/ml in serum free medium) was added to each well. The MTT was removed after 4 hrs, cells were washed out with PBS (phosphate buffered saline, pH 7.4), and 100 μl DMSO was added to each well to dissolve water insoluble MTT-formazan crystals. Absorbance was recorded at 570 nm in an ELISA reader (Bio-Rad, Model 680, USA). All experiments were performed at least 3 times in triplicate wells.

[3] = test system: adhesion of neutrophils onto human umbilical vein endothelial cells (HUVECs); assay: Neutrophil adhesion assay on LPS-induced endothelial cells (static conditions); type: cell-based; settings: LPS (1 μg/ml) 6 hrs; for IC50: HUVEC, read-out: Neutrophil Adhesion Inhibition IC50
Protocol: as §1
Neutrophils were isolated from peripheral blood of healthy individuals (Kumar S et al, 2005). Blood was collected in heparin solution (20 U/ml) and erythrocytes were removed by sedimentation against 6% dextran solution. Plasma, rich in white blood cells, was layered over Ficoll-Hypaque solution (Sigma, USA), followed by centrifugation (300 g for 20 min, 20° C.). The top saline layer and the Ficoll-Hypaque layer were aspirated leaving neutrophils/RBC pellet. The residual red blood cells were removed by hypotonic lysis. Isolated cells were washed with PBS and resuspended in PBS containing 5 mM glucose, 1 mM CaCl2, and 1 mM MgCl2 at a final concentration of 6×10^5 cells/ml.
Neutrophil adhesion assay was performed under static conditions as described previously (Kumar S et al, 2005). Briefly, endothelial cells plated in 96-well culture plates were incubated with or without RS—Z at desired concentrations for 2 hrs, followed by induction with LPS (1 μg/ml) for 6 hrs. Endothelial monolayers were washed with PBS and neutrophils (6×10^4/well) were added over it and were allowed to adhere for 1 hr at 37° C. The non-adherent neutrophils were washed with PBS and neutrophils bound to endothelial cells were assayed by adding a substrate solution consisting of o-phenylenediamine dihydrochloride (40 mg/100 ml in citrate phosphate buffer, pH 4.5), 0.1% cetrimethyl ammonium bromide, and 3-amino-1,2,4 triazole (1 mM). The absorbance was read at 490 nm using an automated microplate reader (Model 680, Bio-Rad, USA).

[4] = test system: LPS induced acute lung injury; assay: LPS aerosol induced acute lung injury model in mice (BALF cell counts, lung injury score); type: in vivo; settings: for Neutrophil count in the BALF / neutrophil influx in the lungs / Lung injury score / LPS-induced lung injury: post-treatment i.p. 0.1, 1.0 and 10 mg/kg; for Neutrophil count in the BALF / neutrophil influx in the lungs: FIG. 2B; for Lung injury score / LPS-induced lung injury: FIG. 3
Protocol: BALB/c male mice 10 weeks old were randomly divided into 5 groups with 6 mice in each group.
Group 1: saline challenged/vehicle (0.25% CMC) treated
Group 2: LPS challenged/vehicle treated
Group 3: LPS challenged/RS—Z (0.1 mg/kg in 0.25% CMC) treated
Group 4: LPS challenged/RS—Z (1 mg/kg in 0.25% CMC) treated
Group 5: LPS challenged/RS—Z (10 mg/kg in 0.25% CMC) treated
Mice in Groups 2, 3, 4 and 5 were challenged with an aerosol of LPS (E. coli strain 026:B6) at a concentration of 300 μg/ml in normal saline for 30 minutes. Mice were placed in a Plexiglas chamber (20×20×10 cm^3) and exposed to an aerosol generated from a nebulizer (Omtron model, USA) with an airflow rate of 9 L/min. Group 1(Control) mice were challenged with saline alone.
Mice were treated with either vehicle or RS—Z thirty minutes after the LPS challenge. Mice in group 1 (control) and Group 2 (LPS challenged) were vehicle (0.25% CMC) treated intraperitoneally (i.p.). Mice in Group 3 were treated with RS—Z at a dose of 0.1 mg/kg body weight by i.p. injection. Mice in Group 4 were treated with RS—Z at a dose of 1.0 mg/kg body weight by i.p. injection. Group 5 were treated with RS—Z at a dose of 10 mg/kg body weight by i.p. injection.
Mice were sacrificed three hrs after the LPS challenge using an overdose of sodium pentothal (100 mg/kg, i.p.). The trachea were cannulated and 0.5 ml of PBS (phosphate buffered saline) was used for lavage at a time and this step was repeated three times. About 1.5 ml of BAL fluid was recovered per mouse. The BAL fluid was centrifuged (400×g, 4° C., 6 min) and the supernatant was kept at −70° C. until analyzed for biochemical parameters. The BAL cells were washed three times with PBS and the pellet was resuspended in 200 μl cold PBS. For total cell counts, BAL cell suspension was diluted 1:20 in PBS and cells were counted in a hemocytometer. For differential counts, BALF cell suspension smear was made on glass slides followed by Leishman's stain. The cells were identified and counted by standard methodology. At least 300 cell (all types) per slide were counted and the percentage of neutrophils was calculated.
The excised lung portions from all the groups was fixed in 10% Buffered formalin. The fixed tissue was embedded in paraffin, sectioned into 4 μm and stained with haematoxylin-eosin for observation under the light microscope. The injury was scored with a semi-quantitative grading system based on the structure changes edema, alveolar and interstitial hemorrhage and inflammatory cells sequestration (Matthay M A, Zimmerman G A, Esmon C, Bhattacharya J, Caller B, et al. (2003) Future research directions in acute lung injury: Summary of a National Heart, Lung, and Blood Institute working group. Am J Respir Crit. Care Med 167: 1027-1035). Semi-quantitative grading system was a 0-to-4 point grading system: 0=No injury, 1=25% injury in a light microscope field, 2=50% injury in a light microscope field, 3=75% injury in a light microscope field, 4= almost 100% injury in a light microscope field. Five light microscopic fields were analyzed for a particular pathological specimen to determine mice lung injury score.

[5] = reference compound, value in mM
[6] = vs. LPS aerosol/vehicle IP, listed as formula 1a

Compound | IC50 [1] [mM] | Efficacious Dose (acute lung Injury model) [mg/kg] | Neutrophil Adhesion Inhibition IC50 [3] | Max. tolerable dose ([2]; 24 hrs, MTT) [mM] | other results
CC(=O)N[C@@H](CS)C(=O)O [NAC, N-acetyl cysteine, reference compound] | – | 150 | not significant | – | IC50 [1, 5]: 6.68 mM; Max. tolerable dose [2, 5]: 20 mM
O=C1CCC(N2C(=O)c3ccccc3C2=O)C(=O)N1 (stereo not drawn) [Thalidomide, α-N-phthalimidoglutarimide] | – | 100 | – | – | –
CCCCCOC(=O)CCSc1ccccn1 [RS—Z, 3-(2-pyridylthio)propionic acid pentyl ester] | 0.05 | – | – | 0.5 | Lung injury caused by bacterial polysaccharide challenge ([4]; 10 mg/kg body weight): significantly reduced; Pulmonary neutrophil infiltration ([4]; 10 mg/kg body weight intraperitoneally): significantly alleviate; Efficacious Dose ([4]; acute lung injury model, mice, i.p.): 10 mg/kg; Total cell counts in the BALF ([4]; post-treatment IP 0.1, 1, 10 mg/kg, vs. LPS aerosol/vehicle IP, FIG. 2A): dose-dependently reduced; Neutrophil count in the BALF / neutrophil influx in the lungs ([4]; vs. LPS aerosol/vehicle IP): reduction of the neutrophil influx; also recorded: dose-dependently reduced; Neutrophil count in the BALF / neutrophil influx in the lungs [4, 6]: Reduction of the neutrophil influx; Lung injury score / LPS-induced lung injury ([4]; vs. LPS aerosol/vehicle IP): attenuation of the LPS-induced lung injury; also recorded: dose-dependently reduced; Lung injury score / LPS-induced lung injury [4, 6]: Attenuation of the LPS-induced lung injury; IC50 [3]: 61 µM
COc1ccc(C2CNC(=O)C2)cc1OC1CCCC1 (stereo not drawn) [Rolipram] | – | 5 | – | – | –
Cc1c(C)c2c(c(C)c1O)CCC(C)(C[C@H]1O[C@H](CO)[C@@H](O)[C@H](O)[C@H]1O)O2 (stereo partly drawn) [Water-soluble Vitamin E derivative, (α-D-glucopyranosyl)methyl-2,5,7,8-(tetramethyl)chroman-6-ol] | – | 10 | – | – | –
CCOC(=O)CCCCCCSc1ccccn1 [RS-32, 7-(2-pyridylthio)heptanoic acid ethyl ester] | 0.097 ± 0.00063 | – | – | 0.5 | IC50 [3]: 94 ± 0.92 µM
CCCCOC(=O)CCSc1ccccn1 [RS-20, 3-(2-pyridylthio)propionic acid butyl ester] | 0.079 ± 0.00073 | – | – | 0.5 | IC50 [3]: 85 ± 0.94 µM

The next lines start with results.

IC50 [1] [mM] | Compound | Efficacious Dose (acute lung Injury model) [mg/kg] | Neutrophil Adhesion Inhibition IC50 [3] | Max. tolerable dose ([2]; 24 hrs, MTT) [mM] | other results
0.178 ± 0.00081 | CCCOC(=O)CCCC(Sc1ccccn1)C(=O)OC (stereo not drawn) [AD-20, 2-(2-pyridylthio)-hexanedioic acid 1-methyl ester 6-propyl ester] | – | not significant | 0.25 | –
0.085 ± 0.00152 | CCCCCOC(=O)CCCC(Sc1ccccn1)C(=O)OC (stereo not drawn) [AD—Z, 2-(2-pyridylthio)-hexanedioic acid-1-methyl ester 6-pentyl ester] | – | not significant | 0.25 | –
0.1 ± 0.00096 | CCOC(=O)CCCCCCCC(Sc1ccccn1)C(=O)OC (stereo not drawn) [AD-32, 2-(2-pyridylthio)-decanedioic acid-10-ethyl ester 1-methyl ester] | – | not significant | 0.25 | –
0.117 ± 0.00092 | COC(=O)C(CCCC(=O)OC1CCCCC1)Sc1ccccn1 (stereo not drawn) [AD-21, 2-(2-pyridylthio)-hexanedioic acid 6-cyclohexyl ester 1-methyl ester] | – | not significant | 0.25 | –
0.135 ± 0.00082 | O=C(CCSc1ccccn1)OC1CCCCC1 [RS-21, 3-(2-pyridylthio)propionic acid cyclohexyl ester] | – | not significant | 0.25 | –
